Reference: paper PMC4450297, “Screening Active Compounds from Garcinia Species Native to China Reveals Novel Compounds Targeting the STAT/JAK Signaling Pathway” (BioMed Research International, 2015)

System: J82
Test: Cell panel screen (CellTiter-Glo)
Format: cell-based, human
Settings: J82 (Urinary bladder), 20 micromolar, 72 hrs
Summary of the method: (§1)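 Steps: seed cells, culture overnight at 37°C; add compound diluted in medium from DMSO stock to 20 μM final; incubate 72 h; add detection reagent for 10 min; read luminescence; compute % inhibition versus vehicle controls.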

Q: Which “Percent Inhibition” value does the source give for `CCOC(=O)C1OC(Oc2cc(O)c3c(c2)OC(c2ccc(O)c(O)c2)CC3=O)C(O)C(O)C1O` (stereo not drawn) [gly-3] here?
A: -7%

System: NCI-H2347
Test: Cell panel screen (CellTiter-Glo)
Format: cell-based, human
Settings: NCI-H2347 (Lung), 20 micromolar, 72 hrs
Summary of the method: as §1

Q: `CCOC(=O)C1OC(Oc2cc(O)c3c(c2)OC(c2ccc(O)c(O)c2)CC3=O)C(O)C(O)C1O` (stereo not drawn) [gly-3] was tested. Which “Percent Inhibition” value did it give?
A: 4%

System: NCI-H2405
Test: Cell panel screen (CellTiter-Glo)
Format: cell-based, human
Settings: NCI-H2405 (Lung), 20 micromolar, 72 hrs
Summary of the method: as §1

Q: Which “Percent Inhibition” value does the source give for `CCOC(=O)C1OC(Oc2cc(O)c3c(c2)OC(c2ccc(O)c(O)c2)CC3=O)C(O)C(O)C1O` (stereo not drawn) [gly-3] here?
A: -3%

System: CCF-STTG1
Test: Cell panel screen (CellTiter-Glo)
Format: cell-based, human
Settings: CCF-STTG1 (Brain), 20 micromolar, 72 hrs
Summary of the method: as §1

Q: For `CCOC(=O)C1OC(Oc2cc(O)c3c(c2)OC(c2ccc(O)c(O)c2)CC3=O)C(O)C(O)C1O` (stereo not drawn) [gly-3], which “Percent Inhibition” value is on record?
A: -4%

System: RL95
Test: Cell panel screen (CellTiter-Glo)
Format: cell-based, human
Settings: RL95 (Uterus), 20 micromolar, 72 hrs
Summary of the method: as §1

Q: Which “Percent Inhibition” value does the source give for `CCOC(=O)C1OC(Oc2cc(O)c3c(c2)OC(c2ccc(O)c(O)c2)CC3=O)C(O)C(O)C1O` (stereo not drawn) [gly-3] here?
A: 6%

System: HGC-27
Test: Cell panel screen (CellTiter-Glo)
Format: cell-based, human
Settings: HGC-27 (Stomach), 20 micromolar, 72 hrs
Summary of the method: as §1

Q: Which “Percent Inhibition” value does the source give for `CCOC(=O)C1OC(Oc2cc(O)c3c(c2)OC(c2ccc(O)c(O)c2)CC3=O)C(O)C(O)C1O` (stereo not drawn) [gly-3] here?
A: -11%

System: Colo 205
Test: Cell panel screen (CellTiter-Glo)
Format: cell-based, human
Settings: Colo 205, 20 micromolar, 72 hrs
Summary of the method: as §1

Q: With `CCOC(=O)C1OC(Oc2cc(O)c3c(c2)OC(c2ccc(O)c(O)c2)CC3=O)C(O)C(O)C1O` (stereo not drawn) [gly-3] as the molecule, how does the “Percent Inhibition” value read?
A: -6%

System: HEC-1-A
Test: Cell panel screen (CellTiter-Glo)
Format: cell-based, human
Settings: HEC-1-A (Uterus), 20 micromolar, 72 hrs
Summary of the method: as §1

Q: How did the “Percent Inhibition” value turn out when `CCOC(=O)C1OC(Oc2cc(O)c3c(c2)OC(c2ccc(O)c(O)c2)CC3=O)C(O)C(O)C1O` (stereo not drawn) [gly-3] was run?
A: -19%

System: HT-1197
Test: Cell panel screen (CellTiter-Glo)
Format: cell-based, human
Settings: HT-1197 (Urinary bladder), 20 micromolar, 72 hrs
Summary of the method: as §1

Q: How did the “Percent Inhibition” value turn out when `CCOC(=O)C1OC(Oc2cc(O)c3c(c2)OC(c2ccc(O)c(O)c2)CC3=O)C(O)C(O)C1O` (stereo not drawn) [gly-3] was run?
A: 11%

System: BT-474
Test: Cell panel screen (CellTiter-Glo)
Format: cell-based, human
Settings: BT-474 (Breast), 20 micromolar, 72 hrs
Summary of the method: as §1

Q: For `CCOC(=O)C1OC(Oc2cc(O)c3c(c2)OC(c2ccc(O)c(O)c2)CC3=O)C(O)C(O)C1O` (stereo not drawn) [gly-3], which “Percent Inhibition” value is on record?
A: -24%

System: A498
Test: Cell panel screen (CellTiter-Glo)
Format: cell-based, human
Settings: A498 (listed under Lung), 20 micromolar, 72 hrs
Summary of the method: as §1

Q: Which “Percent Inhibition” value does the source give for `CCOC(=O)C1OC(Oc2cc(O)c3c(c2)OC(c2ccc(O)c(O)c2)CC3=O)C(O)C(O)C1O` (stereo not drawn) [gly-3] here?
A: -4%

System: HCC1937
Test: Cell panel screen (CellTiter-Glo)
Format: cell-based, human
Settings: HCC1937 (Breast), 20 micromolar, 72 hrs
Summary of the method: as §1

Q: How did the “Percent Inhibition” value turn out when `CCOC(=O)C1OC(Oc2cc(O)c3c(c2)OC(c2ccc(O)c(O)c2)CC3=O)C(O)C(O)C1O` (stereo not drawn) [gly-3] was run?
A: 3%

System: HCC1395
Test: Cell panel screen (CellTiter-Glo)
Format: cell-based, human
Settings: HCC1395 (Breast), 20 micromolar, 72 hrs
Summary of the method: as §1

Q: For `CCOC(=O)C1OC(Oc2cc(O)c3c(c2)OC(c2ccc(O)c(O)c2)CC3=O)C(O)C(O)C1O` (stereo not drawn) [gly-3], which “Percent Inhibition” value is on record?
A: 9%

System: C3A
Test: Cell panel screen (CellTiter-Glo)
Format: cell-based, human
Settings: C3A (Liver), 20 micromolar, 72 hrs
Summary of the method: as §1

Q: How did the “Percent Inhibition” value turn out when `CCOC(=O)C1OC(Oc2cc(O)c3c(c2)OC(c2ccc(O)c(O)c2)CC3=O)C(O)C(O)C1O` (stereo not drawn) [gly-3] was run?
A: -4%

System: M059J
Test: Cell panel screen (CellTiter-Glo)
Format: cell-based, human
Settings: M059J (Brain), 20 micromolar, 72 hrs
Summary of the method: as §1

Q: How did the “Percent Inhibition” value turn out when `CCOC(=O)C1OC(Oc2cc(O)c3c(c2)OC(c2ccc(O)c(O)c2)CC3=O)C(O)C(O)C1O` (stereo not drawn) [gly-3] was run?
A: 1%

System: HCC1599
Test: Cell panel screen (CellTiter-Glo)
Format: cell-based, human
Settings: HCC1599 (Breast), 20 micromolar, 72 hrs
Summary of the method: as §1

Q: For `CCOC(=O)C1OC(Oc2cc(O)c3c(c2)OC(c2ccc(O)c(O)c2)CC3=O)C(O)C(O)C1O` (stereo not drawn) [gly-3], which “Percent Inhibition” value is on record?
A: -18%

System: NCI-H1623
Test: Cell panel screen (CellTiter-Glo)
Format: cell-based, human
Settings: NCI-H1623 (Lung), 20 micromolar, 72 hrs
Summary of the method: as §1

Q: Which “Percent Inhibition” value does the source give for `CCOC(=O)C1OC(Oc2cc(O)c3c(c2)OC(c2ccc(O)c(O)c2)CC3=O)C(O)C(O)C1O` (stereo not drawn) [gly-3] here?
A: 8%

System: Bel-7402
Test: Cell panel screen (CellTiter-Glo)
Format: cell-based, human
Settings: Bel-7402 (Liver), 20 micromolar, 72 hrs
Summary of the method: as §1

Q: How did the “Percent Inhibition” value turn out when `CCOC(=O)C1OC(Oc2cc(O)c3c(c2)OC(c2ccc(O)c(O)c2)CC3=O)C(O)C(O)C1O` (stereo not drawn) [gly-3] was run?
A: -5%

System: HCC1569
Test: Cell panel screen (CellTiter-Glo)
Format: cell-based, human
Settings: HCC1569 (Breast), 20 micromolar, 72 hrs
Summary of the method: as §1

Q: For `CCOC(=O)C1OC(Oc2cc(O)c3c(c2)OC(c2ccc(O)c(O)c2)CC3=O)C(O)C(O)C1O` (stereo not drawn) [gly-3], which “Percent Inhibition” value is on record?
A: -8%

System: HPAF-II
Test: Cell panel screen (CellTiter-Glo)
Format: cell-based, human
Settings: HPAF-II (Pancreas), 20 micromolar, 72 hrs
Summary of the method: as §1

Q: `CCOC(=O)C1OC(Oc2cc(O)c3c(c2)OC(c2ccc(O)c(O)c2)CC3=O)C(O)C(O)C1O` (stereo not drawn) [gly-3] was tested. Which “Percent Inhibition” value did it give?
A: -7%

System: BT-549
Test: Cell panel screen (CellTiter-Glo)
Format: cell-based, human
Settings: BT-549 (Breast), 20 micromolar, 72 hrs
Summary of the method: as §1

Q: How did the “Percent Inhibition” value turn out when `CCOC(=O)C1OC(Oc2cc(O)c3c(c2)OC(c2ccc(O)c(O)c2)CC3=O)C(O)C(O)C1O` (stereo not drawn) [gly-3] was run?
A: -14%

System: A704
Test: Cell panel screen (CellTiter-Glo)
Format: cell-based, human
Settings: A704 (Kidney), 20 micromolar, 72 hrs
Summary of the method: as §1

Q: How did the “Percent Inhibition” value turn out when `CCOC(=O)C1OC(Oc2cc(O)c3c(c2)OC(c2ccc(O)c(O)c2)CC3=O)C(O)C(O)C1O` (stereo not drawn) [gly-3] was run?
A: -17%

System: ChaGo-K-1
Test: Cell panel screen (CellTiter-Glo)
Format: cell-based, human
Settings: ChaGo-K-1 (Lung), 20 micromolar, 72 hrs
Summary of the method: as §1

Q: With `CCOC(=O)C1OC(Oc2cc(O)c3c(c2)OC(c2ccc(O)c(O)c2)CC3=O)C(O)C(O)C1O` (stereo not drawn) [gly-3] as the molecule, how does the “Percent Inhibition” value read?
A: -13%

System: C8166
Test: Cell panel screen (CellTiter-Glo)
Format: cell-based, human
Settings: C8166 (Leukemia), 20 micromolar, 72 hrs
Summary of the method: as §1

Q: For `CCOC(=O)C1OC(Oc2cc(O)c3c(c2)OC(c2ccc(O)c(O)c2)CC3=O)C(O)C(O)C1O` (stereo not drawn) [gly-3], which “Percent Inhibition” value is on record?
A: -1%

System: T98G
Test: Cell panel screen (CellTiter-Glo)
Format: cell-based, human
Settings: T98G (Brain), 20 micromolar, 72 hrs
Summary of the method: as §1

Q: Which “Percent Inhibition” value does the source give for `CCOC(=O)C1OC(Oc2cc(O)c3c(c2)OC(c2ccc(O)c(O)c2)CC3=O)C(O)C(O)C1O` (stereo not drawn) [gly-3] here?
A: -3%

System: CW-2
Test: Cell panel screen (CellTiter-Glo)
Format: cell-based, human
Settings: CW-2 (Colon), 20 micromolar, 72 hrs
Summary of the method: as §1

Q: Which “Percent Inhibition” value does the source give for `CCOC(=O)C1OC(Oc2cc(O)c3c(c2)OC(c2ccc(O)c(O)c2)CC3=O)C(O)C(O)C1O` (stereo not drawn) [gly-3] here?
A: 4%

System: SW13
Test: Cell panel screen (CellTiter-Glo)
Format: cell-based, human
Settings: SW13 (Adrenal gland), 20 micromolar, 72 hrs
Summary of the method: as §1

Q: `CCOC(=O)C1OC(Oc2cc(O)c3c(c2)OC(c2ccc(O)c(O)c2)CC3=O)C(O)C(O)C1O` (stereo not drawn) [gly-3] was tested. Which “Percent Inhibition” value did it give?
A: -5%

System: NCI-H524
Test: Cell panel screen (CellTiter-Glo)
Format: cell-based, human
Settings: NCI-H524 (Lung), 20 micromolar, 72 hrs
Summary of the method: as §1

Q: `CCOC(=O)C1OC(Oc2cc(O)c3c(c2)OC(c2ccc(O)c(O)c2)CC3=O)C(O)C(O)C1O` (stereo not drawn) [gly-3] was tested. Which “Percent Inhibition” value did it give?
A: -25%

System: Panc 03.27
Test: Cell panel screen (CellTiter-Glo)
Format: cell-based, human
Settings: Panc 03.27 (Pancreas), 20 micromolar, 72 hrs
Summary of the method: as §1

Q: `CCOC(=O)C1OC(Oc2cc(O)c3c(c2)OC(c2ccc(O)c(O)c2)CC3=O)C(O)C(O)C1O` (stereo not drawn) [gly-3] was tested. Which “Percent Inhibition” value did it give?
A: 2%

System: NCI-H28
Test: Cell panel screen (CellTiter-Glo)
Format: cell-based, human
Settings: NCI-H28 (Lung), 20 micromolar, 72 hrs
Summary of the method: as §1

Q: How did the “Percent Inhibition” value turn out when `CCOC(=O)C1OC(Oc2cc(O)c3c(c2)OC(c2ccc(O)c(O)c2)CC3=O)C(O)C(O)C1O` (stereo not drawn) [gly-3] was run?
A: -18%

System: TCCSUP
Test: Cell panel screen (CellTiter-Glo)
Format: cell-based, human
Settings: TCCSUP (Urinary bladder), 20 micromolar, 72 hrs
Summary of the method: as §1

Q: For `CCOC(=O)C1OC(Oc2cc(O)c3c(c2)OC(c2ccc(O)c(O)c2)CC3=O)C(O)C(O)C1O` (stereo not drawn) [gly-3], which “Percent Inhibition” value is on record?
A: -1%

System: T47D
Test: Cell panel screen (CellTiter-Glo)
Format: cell-based, human
Settings: T47D (Breast), 20 micromolar, 72 hrs
Summary of the method: as §1

Q: Which “Percent Inhibition” value does the source give for `CCOC(=O)C1OC(Oc2cc(O)c3c(c2)OC(c2ccc(O)c(O)c2)CC3=O)C(O)C(O)C1O` (stereo not drawn) [gly-3] here?
A: -4%

System: NCI-H1770
Test: Cell panel screen (CellTiter-Glo)
Format: cell-based, human
Settings: NCI-H1770 (Lung), 20 micromolar, 72 hrs
Summary of the method: as §1

Q: For `CCOC(=O)C1OC(Oc2cc(O)c3c(c2)OC(c2ccc(O)c(O)c2)CC3=O)C(O)C(O)C1O` (stereo not drawn) [gly-3], which “Percent Inhibition” value is on record?
A: -10%

System: MSTO-211-H
Test: Cell panel screen (CellTiter-Glo)
Format: cell-based, human
Settings: MSTO-211-H (Lung), 20 micromolar, 72 hrs
Summary of the method: as §1

Q: With `CCOC(=O)C1OC(Oc2cc(O)c3c(c2)OC(c2ccc(O)c(O)c2)CC3=O)C(O)C(O)C1O` (stereo not drawn) [gly-3] as the molecule, how does the “Percent Inhibition” value read?
A: -3%

System: NCI-H1694
Test: Cell panel screen (CellTiter-Glo)
Format: cell-based, human
Settings: NCI-H1694 (Lung), 20 micromolar, 72 hrs
Summary of the method: as §1

Q: `CCOC(=O)C1OC(Oc2cc(O)c3c(c2)OC(c2ccc(O)c(O)c2)CC3=O)C(O)C(O)C1O` (stereo not drawn) [gly-3] was tested. Which “Percent Inhibition” value did it give?
A: 1%

System: ZR-75-30
Test: Cell panel screen (CellTiter-Glo)
Format: cell-based, human
Settings: ZR-75-30 (Breast), 20 micromolar, 72 hrs
Summary of the method: as §1

Q: With `CCOC(=O)C1OC(Oc2cc(O)c3c(c2)OC(c2ccc(O)c(O)c2)CC3=O)C(O)C(O)C1O` (stereo not drawn) [gly-3] as the molecule, how does the “Percent Inhibition” value read?
A: 13%
